Patent US7011938B2, “Method of measuring platelet activation” (Barts and The London NHS Trust, priority 2000, dated 2006)
Values joined by “and” are separate entries in the source; they are usually repeats but may differ in a detail not shown here. Identical values can stand only once. Counter-ions that a name gives are not always drawn.

Assays:
platelets in whole blood [1] = assay: Assessment of platelet activation on the ADVIA 120 (PLT, MPV, MPC, PCDW, MPM); type: cell-based, human; details: for Platelet count in blood: CTAD and E/C corrected for dilution; for Platelet counts in blood: Example 3 Table 1, ambient temperature, mean of 7
Experimental: Assessment of platelet activation on the ADVIA 120. Whole blood samples were taken into Vacutainer™ containers (Becton Dickinson) containing either EDTA, CTAD, or a mixture of EDTA and CTAD (E/C). Samples were analysed immediately post-venesection and at timed intervals of 30, 60, 120, and 180 minutes post venesection. Analysis of platelet count (PLT), mean platelet volume (MPV), mean platelet component (MPC) and mean platelet component distributionwidth (PCDW) was performed using the ADVIA 120 Haematology System (Bayer Corporation, Tarrytown, N.Y.) calibrated prior to use with ADVIA TESTpoint Haematology Control reagents. (Bayer Corporation, Tarrytown, N.Y.).
Whole blood samples were taken into Vacutainer™ containers (Becton Dickinson) containing EDTA and mixed with the aforementioned platelet antagonists, or with CTAD (this mixture is referred to as E/C). Samples were analysed as in Example 1.
(§1) Whole blood samples were taken into Vacutainer™ containers that contained either K3EDTA, or CTAD, or a mixture of K3EDTA and CTAD (E/C). For the latter, blood was collected first into K3EDTA and then immediately transferred to a Vacutainer™ containing CTAD. Samples were held at ambient temperature, analysed immediately and at 30, 60, 120, and 180 min after venesection. Analysis of platelet count (PLT), mean platelet volume (MPV) and mean platelet component concentration (MPC) was done using the ADVIA®120 haematology system (Bayer Corporation, Tarrytown, N.Y.) Platelet counts made in blood anticoagulated with CTAD and E/C were corrected for dilution (dilution factors were 1.11 and 1.125 respectively). The system was calibrated and standardised prior to use with ADVIA®-SETpoint Haematology Control and ADVIA® OPTIpoint, respectively (Bayer Corporation). In one series of experiments (n=4) these analyses were performed on blood samples anticoagulated with E/C but held at ambient temperature and at 4° C. to investigate the effect of cooling on platelet activation.

platelets in whole blood [2] = assay: Expression of CD62P on platelets by flow cytometry; type: cell-based, human; details: for CD62P % expression in blood: Example 1, n=6, mean±se; for CD62P % positive platelets in blood: Example 3, at RT
Experimental: (§2) Measurement of the expression CD62P and the number of leucocyte platelet aggregates (PLAs). Anti-coagulated blood (5 μl) was incubated at room temperature with either FITC CD62P (5 μl) or FITC isotype control (5 μl), or PE CD45 (5 μl) and FITC isotype control (5 μl) or FITC CD42a (5 μl) and PE CD45 (5 μl), in 90 μl of TS for 5 min. Samples were diluted to 1 ml with TS and analysed immediately by flow cytometry.
(§3) Flow cytometry. Blood cells were analysed on a FACScan (Becton Dickinson, Oxford, UK) equipped with CellQuest® software. The flow cytometer was calibrated prior to use with fluorochrome labelled beads (Fluorospheres™, Dako).
For the analysis of CD62P expression data was acquired in real time with a primary gate set on a dual parameter histogram of forward light scatter (FLS) logarithmic scale (abscissa) and side light scatter (SLS) logarithmic scale (ordinate). This facilitated identification of the platelets within the blood and was confirmed by the analysis of CD42a expression (FIG. 1). Background fluorescence was assessed with platelets labelled with the FITC conjugated isotype control antibody. Cursors were set in a single parameter histogram of frequency (ordinate) and green fluorescence intensity (abscissa), so that less than 1% of the platelets stained positively with the control antibody. Changes in CD62P expression (green fluorescence logarithmic scale), together with those of FLS and SLS, were then recorded on the gated platelets.

[3] = tested on: platelet leucocyte aggregates in whole blood; assay: Platelet-leucocyte aggregates (PLAs) by flow cytometry; type: cell-based, human
Experimental: as §2, §3
For the analysis of platelet-leucocyte aggregates (FIG. 2), cells were analysed in a histogram of side scatter (logarithmic scale ordinate) and orange fluorescence (logarithmic scale abscissa). Leucocytes identified by their positive staining with PE CD45 were gated to a histogram of green fluorescence (logarithmic scale ordinate) and orange fluorescence (logarithmic scale abscissa). Events that were both green and orange were considered platelet leucocyte aggregates and recorded as a percentage of a total of 10,000 gated leucocytes.
As Example 1. Platelet-leucocyte aggregates could then be gated to a histogram (C) of side scatter (logarithmic scale ordinate) and orange fluorescence (logarithmic scale abscissa) to identify, by their characteristic SLS, which leucocytes were forming PLAs.

whole blood = assay: Comparison of ADVIA 120 haematology results in anticoagulated blood; type: cell-based, human; details: Table 2, Mean (+/-S.E.) at 30 minutes, 7 control samples
Experimental: as §1

platelets [4] = details: room temperature; on average; Threatte et al., 1984; cited from earlier work
platelets [5] = details: over a period of 1–2 h; impedance procedures; depends on sodium citrate concentration; cited from earlier work
[6] = Example 1, 30 min, n=6, mean±se
[7] = Example 1, 60 min, n=6, mean±se
[8] = Example 1, 120 min, n=6, mean±se
[9] = Example 1, 180 min, n=6, mean±se

Structure (SMILES): O=C(O)CN(CCN(CC(=O)O)CC(=O)O)CC(=O)O [EDTA, Ethylenediaminetetra-acetic acid]
- Platelet count in blood (platelets in whole blood [1]; Example 1, 0 min, n=6): 235±12
- MPC in blood (platelets in whole blood [1]; Example 1, 0 min, n=6, mean±se): 28.0 ± 0.87 g/dL
- MPV in blood (platelets in whole blood [1]; Example 1, 0 min, n=6, mean±se): 8.0 ± 0.37 fL
- PCDW in blood (platelets in whole blood [1]; Example 1, 0 min, n=6, mean±se): 5.85 ± 0.28 g/dL
- Platelet count in blood (platelets in whole blood [1]; Example 1, 30 min, n=6): 246 ± 14
- MPC in blood (platelets in whole blood [1]; [6]): 29.1 ± 0.52 g/dL
- MPV in blood (platelets in whole blood [1]; [6]): 7.7 ± 0.27 fL
- PCDW in blood (platelets in whole blood [1]; [6]): 5.00 ± 0.09 g/dL
- Platelet count in blood (platelets in whole blood [1]; Example 1, 60 min, n=6): 249 ± 14
- MPC in blood (platelets in whole blood [1]; [7]): 28.8 ± 0.42 g/dL
- MPV in blood (platelets in whole blood [1]; [7]): 7.7 ± 0.24 fL
- PCDW in blood (platelets in whole blood [1]; [7]): 5.00 ± 0.12 g/dL
- Platelet count in blood (platelets in whole blood [1]; Example 1, 120 min, n=6): 247 ± 14
- MPC in blood (platelets in whole blood [1]; [8]): 27.9 ± 0.48 g/dL
- MPV in blood (platelets in whole blood [1]; [8]): 8.0 ± 0.30 fL
- PCDW in blood (platelets in whole blood [1]; [8]): 4.80 ± 0.11 g/dL
- Platelet count in blood (platelets in whole blood [1]; Example 1, 180 min, n=6): 246 ± 5
- MPC in blood (platelets in whole blood [1]; [9]): 27.1 ± 0.36 g/dL
- MPV in blood (platelets in whole blood [1]; [9]): 8.1 ± 0.21 fL
- PCDW in blood (platelets in whole blood [1]; [9]): 4.80 ± 0.08 g/dL and 4.80 ± 0.06 g/dL
- MPC in blood (platelets in whole blood [1]; Example 3, at RT, 0 min): 2.8e-12 ± 8.7e-14 g/dL
- MPV in blood (platelets in whole blood [1]; Example 3, at RT, 0 min): 8.0 ± 0.37 fL
- MPC in blood (platelets in whole blood [1]; Example 3, at RT, 30 min): 2.91e-12 ± 5.2e-14 g/dL
- MPV in blood (platelets in whole blood [1]; Example 3, at RT, 30 min): 7.7 ± 0.27 fL
- MPC in blood (platelets in whole blood [1]; Example 3, at RT, 60 min): 2.88e-12 ± 4.2e-14 g/dL
- MPV in blood (platelets in whole blood [1]; Example 3, at RT, 60 min): 7.7 ± 0.24 fL
- MPC in blood (platelets in whole blood [1]; Example 3, at RT, 120 min): 2.79e-12 ± 4.8e-14 g/dL
- MPV in blood (platelets in whole blood [1]; Example 3, at RT, 120 min): 8.0 ± 0.30 fL
- MPC in blood (platelets in whole blood [1]; Example 3, at RT, 180 min): 2.71e-12 ± 3.6e-14 g/dL
- MPV in blood (platelets in whole blood [1]; Example 3, at RT, 180 min): 8.1 ± 0.21 fL
- Platelet counts in blood (platelets in whole blood [1]; 0 min): 235 ± 13
- Platelet counts in blood (platelets in whole blood [1]; 30 min): 246 ± 14
- Platelet counts in blood (platelets in whole blood [1]; 180 min): 246 ± 5
- CD62P % expression in blood (platelets in whole blood [2]; 0 min post venesection): 1.10 ± 0.24%
- CD62P % expression in blood (platelets in whole blood [2]; 30 min): 3.71 ± .04%
- CD62P % expression in blood (platelets in whole blood [2]; 60 min): 11.27 ± .60%
- CD62P % expression in blood (platelets in whole blood [2]; 120 min): 18.94 ± 2.53%
- CD62P % expression in blood (platelets in whole blood [2]; 180 min): 23.05±2.79%
- CD62P % positive platelets in blood (platelets in whole blood [2]; 0 min): 1.10 ± 0.24%
- CD62P % positive platelets in blood (platelets in whole blood [2]; 0 min, listed as K3EDTA): 1.10±0.61%
- CD62P % positive platelets in blood (platelets in whole blood [2]; 30 min): 3.71 ± 1.04%
- CD62P % positive platelets in blood (platelets in whole blood [2]; 60 min): 11.27 ± 1.60%
- CD62P % positive platelets in blood (platelets in whole blood [2]; 120 min): 18.94 ± 2.53%
- CD62P % positive platelets in blood (platelets in whole blood [2]; 180 min): 23.05 ± 2.79%
- CD62P % positive platelets in blood (platelets in whole blood [2]; 180 min, listed as K3EDTA): 23.05±1.54%
- % platelet leucocyte aggregates in blood ([3]; Example 1, 0 min, n=6, mean±se): 3.50±0.50%
- % platelet leucocyte aggregates in blood [3, 6]: 4.16 ± 0.86%
- % platelet leucocyte aggregates in blood [3, 7]: 8.87 ± 1.54%
- % platelet leucocyte aggregates in blood [3, 8]: 8.50 ± 1.44%
- % platelet leucocyte aggregates in blood [3, 9]: 13.50±2.41%
- % platelet leucocyte aggregates in blood ([3]; Example 3, at RT, 0 min): 3.30 ± 0.5%
- % platelet leucocyte aggregates in blood ([3]; Example 3, at RT, 0 min, listed as K3EDTA): 3.50±0.71%
- % platelet leucocyte aggregates in blood ([3]; Example 3, at RT, 30 min): 4.16 ± 0.86%
- % platelet leucocyte aggregates in blood ([3]; Example 3, at RT, 60 min): 8.87 ± 1.54%
- % platelet leucocyte aggregates in blood ([3]; Example 3, at RT, 120 min): 8.50 ± .44%
- % platelet leucocyte aggregates in blood ([3]; Example 3, at RT, 180 min): 13.50 ± 1.74%
- % platelet leucocyte aggregates in blood ([3]; Example 3, at RT, 180 min, listed as K3EDTA): 13.50±1.74%
- MPC (whole blood): 29.1 (0.52) g/dL
- MPV (whole blood): 7.7 (0.27) fL
- PCDW (whole blood): 5.00 (0.09) g/dL
- PCT (whole blood): 0.19 (0.01) %
- PDW (whole blood): 58.9 (3.24) %
- PLT (whole blood; CTAD ×1.11, E/C ×1.125): 246 (14) 109/L
- MPV greater than in corresponding citrate anticoagulated blood (platelets [4]): 23%

Structure (SMILES): O=C(O)CC(O)(CC(=O)O)C(=O)O [citrate, trisodium citrate]
- increase in platelet volume (platelets [5]): 3–10%
